From patent US20050106111A1, “Compositions and methods for reducing dental plaque” (Aphios Corporation, priority 2003, published 2005)
Converted amounts (≈) assume the structure as drawn. Read-outs that look alike come from different tables or passages of the source. Each block holds one compound with its values, some of them ahead of it.

Key:
[1] = clinical trials; cited from earlier work
[2] = tested on: Streptococcus mutans; test: Minimum bactericidal concentration (MBC) against S. mutans; format: cell-based
From the text: (§1) Minimum inhibitory concentrations (MIC) can be determined to identify the minimum concentration of a composition needed to inhibit the growth of the target organism using methods well known to those skilled in the art. Minimum bactericidal concentrations (MBC) can be determined to identify the minimum concentration of a composition needed to kill the target organism using methods well known to those skilled in the art. The MBC can be determined from the same plates set up for the MIC.
(§2) Cultures of Actinomyces viscosus, Streptococcus mutans, and Actinobacillus actinomycete-mcomitans were obtained from the American Type Culture Collection (ATCC) following instructions provided by ATCC. Frozen stocks of each bacteria were prepared by adding 10% (v/v) volume of glycerol to an overnight culture; aliquots of the resulting suspension were then frozen at −80° C.
(§3) Minimum inhibitory concentrations (MIC) were determined to identify the minimum concentration of a compound needed to inhibit the growth of the target organism. Minimum bactericidal concentrations (MBC) were determined to identify the minimum concentration of a compound needed to kill the target organism. The MBC was determined from the same plates set up for the MIC.

[3] = tested on: A. actinomycetemcomitans; test: Minimum bactericidal concentration (MBC) against A. actinomycetemcomitans; format: cell-based; conditions: Aggregatibacter actinomycetemcomitans
From the text: as §1, §2, §3

[4] = tested on: Streptococcus mutans; test: Minimum inhibitory concentration (MIC) against S. mutans; format: cell-based
From the text: as §1, §2, §3

[5] = tested on: Actinomyces viscosus; test: Minimum bactericidal concentration (MBC) against A. viscosus; format: cell-based
From the text: as §1, §2, §3

[6] = tested on: Actinomyces viscosus; test: Minimum inhibitory concentration (MIC) against A. viscosus; format: cell-based
From the text: as §1, §2, §3

[7] = tested on: A. actinomycetemcomitans; test: Minimum inhibitory concentration (MIC) against A. actinomycetemcomitans; format: cell-based; conditions: Aggregatibacter actinomycetemcomitans
From the text: as §1, §2, §3

[8] = tested on: mice; conditions: cited from earlier work
[9] = tested on: A. actinomycetemcomitans; test: Biofilm assay, bactericidal activity against A. actinomycetemcomitans in a biofilm on a solid support; format: cell-based; conditions: 125 μg/mL, 1 hour incubation in test agent
Method: (§4) A biofilm assay can be conducted to assess the bactericidal activity of the target compositions when the challenge organisms are contained within a biofilm. The semi-purified Vibrio gazogenes extract can be assayed for bactericidal activity against orally-relevant microbes contained in a biofilm grown on a solid support.
as §4, with “was” for “can be”, “access” for “assess”, “compounds” for “compositions”

[10] = tested on: A. viscosus; test: Biofilm assay, bactericidal activity against A. viscosus in a biofilm on a solid support; format: cell-based; conditions: 125 μg/mL, 1 hour incubation in test agent
Method: as §4
as §4, with “was” for “can be”, “access” for “assess”, “compounds” for “compositions”

[11] = tested on: S. mutans; test: Biofilm assay, bactericidal activity against S. mutans in a biofilm on a solid support; format: cell-based; conditions: 125 μg/mL, 1 hour incubation in test agent
Method: as §4
as §4, with “was” for “can be”, “access” for “assess”, “compounds” for “compositions”

Compound: N=C(NCCCCCCNC(=N)NC(=N)Nc1ccc(Cl)cc1)NC(=N)Nc1ccc(Cl)cc1.O=C(O)[C@H](O)[C@@H](O)[C@H](O)[C@H](O)CO.O=C(O)[C@H](O)[C@@H](O)[C@H](O)[C@H](O)CO [CHG, chlorhexidine digluconate]
reduced gingivitis [1]: 50-80%

MIC ([4]; S. mutans, read-out: MIC): 1.95 µg/mL (≈ 3.86 µM) | MIC ([6]; A. viscosus, read-out: MIC): 3.9 µg/mL (≈ 7.72 µM) | MIC ([7]; A. actinomycetemcomitans, read-out: MIC): 3.9 µg/mL (≈ 7.72 µM)
Compound: [H]/N=C(\N/C(=N/[H])NCCCCCCNC(=N)NC(=N)Nc1ccc(Cl)cc1)Nc1ccc(Cl)cc1 [Chlorhexidine, chlorhexidine]
MBC ([2]; S. mutans, read-out: MBC): 1.95 µg/mL (≈ 3.86 µM) | MBC ([3]; A. actinomycetemcomitans, read-out: MBC): 3.9 µg/mL (≈ 7.72 µM) | MBC ([5]; A. viscosus, read-out: MBC): 7.8 µg/mL (≈ 15.4 µM)

Compound: magnesidin
LD50 ([8]; intraperitoneal): 50 mg/kg | LD50 ([8]; oral or subcutaneous): 1,000 mg/kg

Compound: Oc1cc(Cl)ccc1Oc1ccc(Cl)cc1Cl [Triclosan, 5-chloro-2-(2,4-dichlorophenoxy)-phenol]
MBC [2]: 15.6 µg/mL (≈ 53.9 µM) | MBC [3]: < 0.75 µg/mL | MIC [4]: 7.8 µg/mL (≈ 26.9 µM) | MBC [5]: 3.9 µg/mL (≈ 13.5 µM) | Microbial Biofilm Control (bacteria count after treatment) [9]: 2.1 × 10^6 | MIC [6]: 3.9 µg/mL (≈ 13.5 µM) | MIC [7]: < 0.75 µg/mL | Microbial Biofilm Control (bacteria count after treatment) [10]: 6.0 × 10^5 | Microbial Biofilm Control (bacteria count after treatment) [11]: 0
